For series [1], the system named is rats. The conditions noted are these: administered orally to rats; cited from earlier work.
The conditions of series [2]: cited from earlier work.
Series [3] has as its system transient local cerebral ischemia animal model. The series is described as follows: Cranial neuroprotective action by oral administration in transient local cerebral ischemia animal model (MCAO). The format is in vivo, sprague-dawly male rats. As for the experimental part:
The measurement of cranial neuroprotective action by oral administration of a sample in the transient local cerebral ischemia animal model was carried out as follows according to a known method.
Experimental animals were 7-week-old sprague-dawly male rats having a weight of 260 to 270 g and the experimental animals were adapted in the breeding room for 7 days before use under the environment in which the contrast cycle was controlled automatically by 12 hours. The temperature of the breeding room was maintained at 23±2° C., the humidity was 55±10%, and food and water were freely ingested.
In order to measure the neuroprotective action according to the oral administration of the sample, an animal model of cerebral ischemia was created. The middle cerebral artery occlusion (MCAO) surgery was performed to create the animal model of cerebral ischemia. […]
In order to measure the neuroprotective action of the sample according to the oral administration, the brain was excised 24 hours after the middle cerebral artery occlusion and stained with 2,3,5-triphenyltetrazolium chloride. […] The area of cerebral infarction (infarct area, mm^2) was measured using a computerized image analyzer, and the infarct volume (mm^3) was calculated by multiplying the total sum of the infarct area of each section by the thickness of the section. The measured values were expressed as mean±SEM (*p<0.05, **p<0.01).

Marks after values point to notes of the source that are not given here.

Turning to `CC(C)[C@@H]1CC[C@@H](C)C[C@H]1O` (racemic) [dl-menthol], in series [1], the LD50 was 3180 mg/kg. Also, the solubility in water entry in series [2] was “rarely dissolved in water”.
On to `CC1=NN(c2ccccc2)C(=O)C1` [MCI-186], for which, in series [3] (2 hours after induction of cerebral ischemia and 2 hours after reperfusion, brain excised 24 hours after MCAO, mean±SEM), the “Cerebral infarct volume (mm^3)” value is reported as 184.2 ± 17.3** mm^3. Further, the “Cranial nerve protection effect (%)” value in series [3] (24 hours after MCAO, relative to physiological saline group) came to 47.71%.

These data come from US11576943B2, “Functional food composition having cranial nerve protection effect and blood flow improvement effect” (chzin Co., Ltd., priority 2020, dated 2023).
